These results are taken from patent publication US11534434B2 (Karuna Therapeutics, Inc., priority 2019, dated 2022).

One data set addresses T1, human M3 mAChR (Homo sapiens, UniProt P20309).
T1 construct: expressed in transfected cells
As to the kind of experiment: Whole-cell functional agonist activity, FLIPR Ca2+ release, U2OS-based human M3 mAChR stable cell line. The source says: (§1) Whole-cell functional agonist activity in cells expressing recombinant human muscarinic receptor subtypes.
(§2) ThermoFisher's FLIPR™ (Fluorescence Imaging Plate Reader) was used to quantify Ca^2+ release, a functional effect associated with Gaq-coupled M1 and M5 mAChRs. CisBio's phospho-ERK (pERK) Thr202/Tyr204 was used to evaluate Gai/o-coupled M2 and M4 mAChRs responses.
One day before the assay, M1, M3, and M5 cells were thawed out and plated at 10,000 cells/well into black-walled, clear-bottom, Poly-D-lysine coated 384-well microplates and incubated at 37° C. and 5% CO2 in MEME+10% FBS+1× penicillin/streptomycin/glutamine, for the M1 and M3 cell lines and F-12+10% FBS+1× penicillin/streptomycin/glutamine for the M5 cell line. On the day of the test, the media was aspirated and replaced with […] fluo-4 dye loading buffer (1× dye, 1× additive A and 2.5 mM fresh probenecid in HBSS and 20 mM HEPES) and incubated at 37° C. and 5% CO2 for 45 minutes. After the incubation, cells were removed from the incubator, […] of HBSS and 20 mM HEPES was added for a total volume of […], and the cells were allowed to equilibrate at room temperature for 15 minutes in the dark before compounds were applied, by adding 4× compound solution in […] of HBSS, 0.4% DMSO and 20 mM HEPES buffer (made from a 10 mM compound stock solution in 100% DMSO), and responses were recorded for 2 minutes in FLIPR Tetra after compound administration. The M1 and M5 responses were analyzed using the CBIS data analysis suite (ChemInnovation, CA).
(§3) Percentage activity was calculated using the following formula: % Activity=100%×(mean RFU of test sample mean RFU of vehicle control)/(mean MAX RFU control ligand mean RFU of vehicle control) where RFU is relative fluorescence unit. The M2 and the M4 cells were thawed out one day before the assay and plated at 2,000 and 1,000 cells per well, respectively, in […] of DMEM/F12+10% FBS in ProxiPlate 384-well white-walled, white-bottom tissue culture-treated plates and incubated at 37° C. and 5% CO2 overnight. Before the assay, cells were serum-starved at 37° C. in 5% CO2 for 4 hours by replacing culture media with […] of F12 media with 8 mM HEPES. The pERK assay was run according to assay kit instructions with minor volume modifications outlined below.

A further data set has as its target T2, human M5 mAChR (Homo sapiens, UniProt P08912).
T2 construct: expressed in transfected cells
T2 sequence (P08912 1-532): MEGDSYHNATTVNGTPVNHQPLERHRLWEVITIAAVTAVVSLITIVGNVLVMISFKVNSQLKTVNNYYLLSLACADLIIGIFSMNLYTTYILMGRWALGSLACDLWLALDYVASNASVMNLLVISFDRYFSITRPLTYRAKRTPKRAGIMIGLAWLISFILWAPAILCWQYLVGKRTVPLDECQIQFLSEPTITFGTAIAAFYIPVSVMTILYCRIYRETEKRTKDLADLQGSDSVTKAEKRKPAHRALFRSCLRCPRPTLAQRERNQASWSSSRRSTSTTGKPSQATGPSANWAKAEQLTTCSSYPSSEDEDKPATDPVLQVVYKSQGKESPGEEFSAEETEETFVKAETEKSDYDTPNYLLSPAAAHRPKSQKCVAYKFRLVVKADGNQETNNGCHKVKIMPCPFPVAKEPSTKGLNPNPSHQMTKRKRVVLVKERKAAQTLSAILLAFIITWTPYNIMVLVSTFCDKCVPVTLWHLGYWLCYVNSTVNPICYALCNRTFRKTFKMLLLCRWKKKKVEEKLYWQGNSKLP
As to the kind of experiment: Whole-cell functional agonist activity, FLIPR Ca2+ release, CHOK1-based human M5 mAChR stable cell line. The following applies: top of curve, % activity vs MAX control ligand, FLIPR Ca2+.
Excerpt: as §1, §2
One day before the assay, M1, M3, and M5 cells were thawed out and plated at 10,000 cells/well into black-walled, clear-bottom, Poly-D-lysine coated 384-well microplates and incubated at 37° C. and 5% CO2 in MEME+10% FBS+1× penicillin/streptomycin/glutamine, for the M1 and M3 cell lines and F-12+10% FBS+1× penicillin/streptomycin/glutamine for the M5 cell line. […] The M1 and M5 responses were analyzed using the CBIS data analysis suite (ChemInnovation, CA).
as §3

The target in another data set is T3, human M2 mAChR (Homo sapiens, UniProt P08172).
T3 construct: expressed in transfected cells
T3 sequence (P08172 1-466): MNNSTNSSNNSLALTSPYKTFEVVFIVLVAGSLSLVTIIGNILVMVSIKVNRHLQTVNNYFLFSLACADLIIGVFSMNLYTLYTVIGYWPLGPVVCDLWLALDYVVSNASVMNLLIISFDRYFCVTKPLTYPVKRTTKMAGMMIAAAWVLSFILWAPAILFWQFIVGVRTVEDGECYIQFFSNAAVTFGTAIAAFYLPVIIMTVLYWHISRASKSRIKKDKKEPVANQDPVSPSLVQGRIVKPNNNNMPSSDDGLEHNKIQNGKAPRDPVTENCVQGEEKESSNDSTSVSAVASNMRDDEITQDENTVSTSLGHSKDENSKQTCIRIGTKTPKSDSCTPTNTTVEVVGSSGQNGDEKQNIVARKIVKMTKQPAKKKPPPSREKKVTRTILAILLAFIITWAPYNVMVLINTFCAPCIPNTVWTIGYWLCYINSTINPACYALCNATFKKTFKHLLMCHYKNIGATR
Put plainly: Whole-cell functional agonist activity, phospho-ERK (pERK), CHOK1-based human M2 mAChR stable cell line. The following applies: top of curve, % of min (DMSO) and max (10 mM Acetylcholine) responses. The method, then:
as §1, §2, §3
(§4) Compound addition was carried out by adding 3× compound solution in […] of media with 0.3% DMSO (made from a 10 mM compound stock solution in 100% DMSO) for 5 minutes before the reaction was terminated by adding […] lysis and blocking solution. Cells were left in the lysis solution for 30 minutes before […] of antibody (Eu and d2) solution was added for an additional 2-hour incubation while protected from light. The plates were then read on laser Pherastar using the TR-FRET protocol.

A short description of data set [1]: Pharmacokinetics following single oral dose administration in male Sprague-Dawley rats. In kind it is in vivo. The conditions noted are these: rat, oral administration of tartrate salts 25 mg/kg. As to the method: In-Vivo Assessment of Pharmacokinetics Following Oral Dose Administration in Male Sprague-Dawley Rats
Blood samples were collected from all animals in Groups 1-3 at 0.25, 0.5, 1, 2, 4, 6, 8, 12, and 24 hours post-dose, with each animal, bled at all time points. […] The slopes of the elimination phase of the concentrations vs. time curve used to calculate the T1/2 were determined by log-linear regression.
PK analyses were performed and validated using Phoenix® WinNonlin® version 8.0.

The next data set deals with T4, human M4 mAChR (Homo sapiens, UniProt P08173).
T4 construct: expressed in transfected cells
T4 sequence (P08173 1-479): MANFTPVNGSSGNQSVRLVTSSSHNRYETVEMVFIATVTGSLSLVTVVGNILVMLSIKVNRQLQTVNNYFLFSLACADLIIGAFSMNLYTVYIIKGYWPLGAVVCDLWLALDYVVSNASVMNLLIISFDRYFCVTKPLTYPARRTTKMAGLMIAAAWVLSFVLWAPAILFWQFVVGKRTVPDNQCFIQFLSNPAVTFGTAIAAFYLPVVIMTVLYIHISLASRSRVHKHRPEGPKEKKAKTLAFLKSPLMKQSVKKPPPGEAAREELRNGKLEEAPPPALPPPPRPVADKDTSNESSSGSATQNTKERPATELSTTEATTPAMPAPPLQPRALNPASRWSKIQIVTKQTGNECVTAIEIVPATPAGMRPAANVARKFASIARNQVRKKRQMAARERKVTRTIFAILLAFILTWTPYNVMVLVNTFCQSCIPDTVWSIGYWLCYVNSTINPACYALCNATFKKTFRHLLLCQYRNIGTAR
Put plainly: Whole-cell functional agonist activity, phospho-ERK (pERK), CHOK1-based human M4 mAChR stable cell line. The following applies: top of curve, % of min (DMSO) and max (10 mM Acetylcholine) responses. The method, then:
as §1, §2, §3, §4

Broadly, the EC50 is the concentration needed to bring the measured effect to its halfway point. Higher therefore signals a need for much substance. As usually defined, the Emax is the size of the effect at its maximum, as opposed to the concentration needed.

T1 sequence (P20309 whole entry): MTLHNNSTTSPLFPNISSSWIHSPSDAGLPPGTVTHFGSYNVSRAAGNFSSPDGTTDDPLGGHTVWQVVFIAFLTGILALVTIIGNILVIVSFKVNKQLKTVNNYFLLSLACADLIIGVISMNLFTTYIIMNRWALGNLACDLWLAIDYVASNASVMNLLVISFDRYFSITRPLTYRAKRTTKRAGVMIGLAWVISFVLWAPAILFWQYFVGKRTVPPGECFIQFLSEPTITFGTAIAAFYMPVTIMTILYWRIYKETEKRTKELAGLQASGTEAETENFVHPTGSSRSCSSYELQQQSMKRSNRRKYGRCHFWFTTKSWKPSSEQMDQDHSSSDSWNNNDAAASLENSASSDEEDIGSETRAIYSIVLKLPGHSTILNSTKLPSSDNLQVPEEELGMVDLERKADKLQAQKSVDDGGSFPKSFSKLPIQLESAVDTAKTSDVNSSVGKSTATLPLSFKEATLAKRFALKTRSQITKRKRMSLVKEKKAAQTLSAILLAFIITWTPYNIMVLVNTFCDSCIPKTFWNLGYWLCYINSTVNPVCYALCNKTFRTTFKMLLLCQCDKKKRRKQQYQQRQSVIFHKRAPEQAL

On human M3 mAChR (agonist, FLIPR Ca2+ release, U2OS human M3 cells), `CCCCCCOc1nsnc1C1=CCCN(C)C1` [Xanomeline, 3-(hexyloxy)-4-(1-methyl-1,2,5,6-tetrahydropyridin-3-yl)-1,2,5-thiadiazole, reference compound] yielded an EC50 greater than 10 µM. For the same molecule, the Emax on human M3 mAChR (top of curve, % activity vs MAX control ligand, FLIPR Ca2+) stood at 17%; on human M5 mAChR it was 92%. Further, the “M2 Top (%)” value at human M2 mAChR worked out at 1%. In addition, in data set [1], the “plasma levels compared between treatments” value is “about mid-way between the levels of xanomeline-d16 and xanomeline-d13”. Further, the “M4 Top (%)” value at human M4 mAChR was 100%.
